# Test results as given in PMC11249632, “Activation of the Calcium-Sensing Receptor by a Subfraction of Amino Acids Contained in Thyroid Drainage Fluid” (ACS Pharmacology & Translational Science, 2024).
# pIC50: −log10 of the molar value.
# What was measured:
# calcium-sensing receptor [1] = target: T1, calcium-sensing receptor (Homo sapiens, UniProt P41180, R990G); set-up: gene CASR
# T1 sequence (P41180 20-1078 R990G): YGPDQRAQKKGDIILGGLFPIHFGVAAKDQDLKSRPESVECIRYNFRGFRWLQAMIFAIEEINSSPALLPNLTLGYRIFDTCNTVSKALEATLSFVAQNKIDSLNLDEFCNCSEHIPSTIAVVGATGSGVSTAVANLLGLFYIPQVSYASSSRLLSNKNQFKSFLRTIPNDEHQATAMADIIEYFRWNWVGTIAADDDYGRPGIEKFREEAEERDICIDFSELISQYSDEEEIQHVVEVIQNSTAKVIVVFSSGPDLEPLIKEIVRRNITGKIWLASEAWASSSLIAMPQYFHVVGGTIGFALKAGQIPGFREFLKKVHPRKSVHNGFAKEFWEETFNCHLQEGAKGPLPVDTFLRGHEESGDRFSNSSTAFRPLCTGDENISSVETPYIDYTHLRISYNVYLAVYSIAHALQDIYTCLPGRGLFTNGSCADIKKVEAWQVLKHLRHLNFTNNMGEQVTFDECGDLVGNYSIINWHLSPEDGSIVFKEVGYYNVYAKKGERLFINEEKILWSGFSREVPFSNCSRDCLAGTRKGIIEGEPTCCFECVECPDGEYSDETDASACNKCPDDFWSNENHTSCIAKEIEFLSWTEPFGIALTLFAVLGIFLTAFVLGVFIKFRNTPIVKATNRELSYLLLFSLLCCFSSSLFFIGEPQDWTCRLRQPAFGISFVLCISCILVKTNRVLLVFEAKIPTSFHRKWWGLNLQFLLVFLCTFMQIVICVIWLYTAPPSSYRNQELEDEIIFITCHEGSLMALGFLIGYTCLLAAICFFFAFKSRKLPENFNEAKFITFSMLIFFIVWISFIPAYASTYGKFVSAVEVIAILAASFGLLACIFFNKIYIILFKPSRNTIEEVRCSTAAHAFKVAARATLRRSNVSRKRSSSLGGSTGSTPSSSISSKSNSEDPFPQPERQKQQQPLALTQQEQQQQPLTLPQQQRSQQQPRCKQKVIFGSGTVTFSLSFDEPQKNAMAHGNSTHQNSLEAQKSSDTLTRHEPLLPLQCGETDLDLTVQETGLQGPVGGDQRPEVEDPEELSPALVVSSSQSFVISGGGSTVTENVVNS
# calcium-sensing receptor [2] = target: T1, calcium-sensing receptor; test: Fura-2 intracellular calcium mobilization, receptor-expressing vs nontransfected HEK293 cells; format: cell-based; set-up: gene CASR; recombinant human receptor stably expressed in HEK293 cells
# calcium-sensing receptor [3] = target: T1, calcium-sensing receptor; test: Fura-2 intracellular calcium mobilization, receptor-expressing vs nontransfected HEK293 cells, blocked by NPS-2143; format: cell-based; set-up: gene CASR; recombinant human receptor stably expressed in HEK293 cells
# calcium-sensing receptor [4] = target: T1, calcium-sensing receptor; test: Fura-2 intracellular calcium mobilization in receptor-expressing HEK293 cells; inhibition of Ca2+-mediated activation at neutral pH (IC50 […] at pH ~[…]); format: cell-based; set-up: gene CASR; recombinant human receptor stably expressed in HEK293 cells
structure (smiles),measurement,setting,value
N[C@@H](CCC(=O)N[C@@H](CS)C(=O)NCC(=O)O)C(=O)O [glutathione],Fura-2 intracellular calcium mobilization in receptor-expressing HEK293 cells,calcium-sensing receptor [1],> 3 mM
N[C@@H](CC(=O)O)C(=O)O [L-aspartate],"Fura-2 intracellular calcium mobilization, receptor-expressing vs nontransfected",calcium-sensing receptor [2],Concentration-dependent receptor activation by L-glutamate (A) and L-aspartate (B)
N[C@@H](CCC(=O)O)C(=O)O [L-glutamate],"Fura-2 intracellular calcium mobilization, receptor-expressing vs nontransfected",calcium-sensing receptor [3],~ 5 mM
"CC(C)(Cc1ccc2ccccc2c1)NC[C@@H](O)COc1cccc(Cl)c1C#N [NPS-2143, 2-chloro-6-[(2R)-2-hydroxy-3-[(2-methyl-1-naphthalen-2-ylpropan-2-yl)amino]propoxy]benzonitrile]",pIC50,calcium-sensing receptor [4],~6.30
